Like-named read-outs stand apart in the source and are kept apart here.
Experiments:
[1] = target: T1, EPHA2 kinase domain (D596-G900) (Homo sapiens, UniProt P29317); assay: Microscale thermophoresis; assay type: binding; settings: read-out: KD MST, 25 °C, 5% DMSO, duplicates
T1 sequence (P29317 596-900): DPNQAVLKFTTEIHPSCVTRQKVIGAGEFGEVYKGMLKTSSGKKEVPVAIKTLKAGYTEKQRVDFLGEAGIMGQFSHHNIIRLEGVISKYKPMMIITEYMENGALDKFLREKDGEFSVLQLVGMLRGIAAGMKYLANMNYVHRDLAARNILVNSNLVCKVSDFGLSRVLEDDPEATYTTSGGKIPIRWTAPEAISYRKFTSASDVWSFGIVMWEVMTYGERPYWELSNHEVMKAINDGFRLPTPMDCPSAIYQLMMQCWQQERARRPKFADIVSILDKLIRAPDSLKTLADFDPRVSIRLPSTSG

[2] = system: human colon carcinoma cells; settings: panel of cell lines; cited from earlier work
human CRC = settings: cited from earlier work
[3] = target: T1, EPHA2 kinase domain (D596-G900); settings: read-out: KD MST, reported previously ref 18; cited from earlier work

Compound | Kd [1] | effect on proliferation of human colon carcinoma cells [2] | effect on growth of human CRC in mice (human CRC) | Kd [3]
Cc1ccc(NC(=O)c2cccc(C(F)(F)F)c2)cc1Nc1nc(-c2cccnc2)nc2c1cnn2C [Compound 7] | 10 nM |  |  | 
COc1cccc(NC(=O)c2ccc(C)c(Nc3nc(-c4cccnc4)nc4c3cnn4C)c2)c1 [Compound 14] | 2 nM |  |  | 
Cc1ccc(C(=O)Nc2cccc(C(F)(F)F)c2)cc1Nc1nc(-c2cccnc2)nc2c1cnn2C [NVP, NVP-BHG712] |  | reduce the proliferation |  | 
Cc1ccc(C(=O)Nc2cccc(C(F)(F)F)c2)cc1Nc1nc(-c2cccnc2)nc2nn(C)cc12 [NVPiso] |  | reduce the proliferation | inhibited the growth of human CRC in mice | 73 nM

Source: article PMC10133194 (Chemistry (Weinheim an der Bergstrasse, Germany), 2023)
